What all share (assay type): functional
In assay [1] the test system is Triticum aestivum. Nature of the assay: Inhibition of etiolated wheat coleoptile growth at 10^-5 M relative to control.
Assay [2] deals with Triticum aestivum. Put plainly: Inhibition of etiolated wheat coleoptile growth at 10^-4 M relative to control.
The subject of assay [3] is Triticum aestivum. Put plainly: Inhibition of etiolated wheat coleoptile growth at 10^-3 M relative to control.

Structures are written as SMILES. Active and inactive are the calls of the source. The rule behind the calls is not given here.

The values that follow come from ChEMBL document CHEMBL1155576, “Bioactive carotanes from Trichoderma virens” (2000).

Broadly, the inhibition is the relative decrease from the control value, in per cent. High values mean a response far below the control, low ones a response near the control.

For the compound `CC(C)[C@@]1(O)[C@@H]2CCC(CO)=CC[C@@]2(C)C[C@@H]1O` [TRICHOCARANE B], at 10 µM the inhibition in the assay with Triticum aestivum [1] was 19%. This compound also yielded an inhibition at 100 µM with Triticum aestivum [2] of 40%.

With `CC(C)(O)[C@@]1(O)[C@@H]2CCC(CO)=CC[C@@]2(C)C[C@@H]1O`, the outcome in the assay with Triticum aestivum [1], in the assay on Triticum aestivum [3] and in the assay with Triticum aestivum [2] was inactive.

As to `CC(C)[C@@]1(O)[C@@H]2CCC(CO)CC[C@@]2(C)C[C@@H]1O` (some centres not stated) [TRICHOCARANE C], the inhibition at 1000 µM with Triticum aestivum [3] is 86%.

`CC(C)[C@@]1(O)[C@@H]2CC[C@@]3(C)O[C@H]3C[C@@]2(C)C[C@@H]1O` [TRICHOCARANE A] had an inhibition at 100 µM in the assay on Triticum aestivum [2] of 40%.
